In brackets after ≈: the same amount, converted by molar mass. Several values for one entry are separate records, joined by “and”; a condition that tells them apart may be missing. Equal values may be shown once. Read-outs that look alike come from different tables or passages of the source.
Assays:
A/PR/8/34 (H1N1) [1] = test system: A/PR/8/34 (H1N1)
[2] = test system: Japanese encephalitis virus (JEV); conditions: in vitro; ref Chang et al., 2012; cited from earlier work
[3] = test system: Japanese encephalitis virus (JEV); conditions: mouse model; ref Chang et al., 2012; cited from earlier work
H1N1 = conditions: restraint-stressed mouse model; ref Chong et al., 2017; cited from earlier work
A/PR/8/34 (H1N1) [4] = test: microbe, parasite or virus in culture; conditions: Influenza A virus, MDCK
[5] = test system: A/Minfang/151/2000 (H3N2); test: microbe, parasite or virus in culture; conditions: Influenza A virus, H3N2, MDCK
HCoV-NL63 = test system: HCoV-NL63; design: method as in Tsai et al., 2020; conditions: HCoV-NL63-infected cells; ref Tsai et al., 2020; read-out: IC50 (CPE and virus yield); cited from earlier work
[6] = test system: A/Minfang/151/2000 (H3N2)

In the case of `O=C1Nc2ccccc2/C1=C1/Nc2ccccc2C1=O` [Indirubin], the IC50 (A/PR/8/34 (H1N1) [1]) is listed as 63.45 ± 5.27 µg/mL and 86.3 ± 5.68 µg/mL and 69.49 ± 1.36 µg/mL, the “inhibitory activity on JEV replication” value [2] is listed as “concentration-dependent inhibitory activity” and the “protection against lethal JEV challenge” value [3] is listed as “good protective effects”. For the same compound, the “H1N1 susceptibility and lung damage” value (H1N1) was “decrease the H1N1 susceptibility and alleviate lung damage”, the IC50 (A/PR/8/34 (H1N1) [4]) was 58.5 ± 10.2 µg/mL (≈ 223 µM) and the IC50 [5] was 77.2 ± 6 µg/mL (≈ 294 µM).
Work on `COc1ccc(-c2cc(=O)c3c(O)cc(O)cc3o2)cc1` [Acacetin] yielded an IC50 [5] of 7.62 ± 1.45 µg/mL (≈ 26.8 µM).
For `O=C1c2ccccc2-n2c1nc1ccccc1c2=O` [Tryptanthrin], the IC50 (HCoV-NL63) is listed as 1520 nM.
For `COc1ccc(-c2cc(=O)c3c(O)c(OC)c(OC)cc3o2)cc1O` [Eupatorin], the IC50 (A/PR/8/34 (H1N1) [1]) was 63.99 ± 3.38 µg/mL and 55.77 ± 3.86 µg/mL and 88.92 ± 7.34 µg/mL, the IC50 [6] was 69.31 ± 1.97 µg/mL and 73.85 ± 1.34 µg/mL and 92.58 ± 0.33 µg/mL and the IC50 (A/PR/8/34 (H1N1) [4]) was 59.5 ± 3.58 µg/mL (≈ 173 µM).
With `COc1ccc(-c2cc(=O)c3c(O)cc(O[C@@H]4O[C@H](CO[C@@H]5O[C@@H](C)[C@H](O)[C@@H](O)[C@H]5O)[C@@H](O)[C@H](O)[C@H]4O)cc3o2)cc1` [Linarin] the IC50 (A/PR/8/34 (H1N1) [1]) was 54.27 ± 3.01 µg/mL and 72.21 ± 2.42 µg/mL and 56.26 ± 0.78 µg/mL, the IC50 [6] was 81.85 ± 2.76 µg/mL and 86.35 ± 9.88 µg/mL and 77.71 ± 3.08 µg/mL and the IC50 (A/PR/8/34 (H1N1) [4]) was 63.2 ± 3.32 µg/mL (≈ 107 µM).
Work on `COc1c(O)cc2oc(-c3ccc(O)cc3)cc(=O)c2c1O` [Dinatin] yielded an IC50 [5] of over 100 µg/mL.

Reference: PMC8689007, “In Silico Prediction and Bioactivity Evaluation of Chemical Ingredients Against Influenza A Virus From Isatis tinctoria L” (Frontiers in Pharmacology, 2021)
